Measured values as given in patent publication US12617787B2, “Merged scaffold TAF1 inhibitors” (H. LEE MOFFITT CANCER CENTER AND RESEARCH INSTITUTE, INC., priority 2020, dated 2026).
“Also recorded” adds a separate entry of the source.

Experiments:
[1] = molecular target: T1, TAF1-2 (Homo sapiens, UniProt P21675); assay: DSF for TAFi with TAF1-2; format: binding; settings: protein TAF1-2, DMSO = 0
T1 construct: a tandem bromodomain (BD1 and BD2)
T1 sequence (P21675 1519-1628 limits assumed): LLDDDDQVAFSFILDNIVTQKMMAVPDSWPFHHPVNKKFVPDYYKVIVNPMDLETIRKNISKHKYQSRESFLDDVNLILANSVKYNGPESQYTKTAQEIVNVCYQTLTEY

[2] = molecular target: T2, purified FLAG-ATR (Homo sapiens, UniProt Q13535); assay: ELISA-based kinase activity: phosphorylation of p53 S15 by purified FLAG-ATR in vitro; format: biochemical; settings: FIG. 3
T2 construct: FLAG
From the text: ELISA-based kinase activity was used to test the ability of compounds to inhibit phosphorylation of p53 S15 by purified FLAG-ATR in vitro.

[3] = test system: HCT116 cells with and without p53; assay: Western blot of marker expression (p21) in HCT116 cells with and without p53; format: cell-based; settings: HCT116 cells with and without p53, treated 30 hrs, FIG. 4
Description: HCT116 cells with and without p53 were treated with compounds for 30 hrs. Expression levels of indicated markers were determined by western blot.

T2 sequence (Q13535 whole entry): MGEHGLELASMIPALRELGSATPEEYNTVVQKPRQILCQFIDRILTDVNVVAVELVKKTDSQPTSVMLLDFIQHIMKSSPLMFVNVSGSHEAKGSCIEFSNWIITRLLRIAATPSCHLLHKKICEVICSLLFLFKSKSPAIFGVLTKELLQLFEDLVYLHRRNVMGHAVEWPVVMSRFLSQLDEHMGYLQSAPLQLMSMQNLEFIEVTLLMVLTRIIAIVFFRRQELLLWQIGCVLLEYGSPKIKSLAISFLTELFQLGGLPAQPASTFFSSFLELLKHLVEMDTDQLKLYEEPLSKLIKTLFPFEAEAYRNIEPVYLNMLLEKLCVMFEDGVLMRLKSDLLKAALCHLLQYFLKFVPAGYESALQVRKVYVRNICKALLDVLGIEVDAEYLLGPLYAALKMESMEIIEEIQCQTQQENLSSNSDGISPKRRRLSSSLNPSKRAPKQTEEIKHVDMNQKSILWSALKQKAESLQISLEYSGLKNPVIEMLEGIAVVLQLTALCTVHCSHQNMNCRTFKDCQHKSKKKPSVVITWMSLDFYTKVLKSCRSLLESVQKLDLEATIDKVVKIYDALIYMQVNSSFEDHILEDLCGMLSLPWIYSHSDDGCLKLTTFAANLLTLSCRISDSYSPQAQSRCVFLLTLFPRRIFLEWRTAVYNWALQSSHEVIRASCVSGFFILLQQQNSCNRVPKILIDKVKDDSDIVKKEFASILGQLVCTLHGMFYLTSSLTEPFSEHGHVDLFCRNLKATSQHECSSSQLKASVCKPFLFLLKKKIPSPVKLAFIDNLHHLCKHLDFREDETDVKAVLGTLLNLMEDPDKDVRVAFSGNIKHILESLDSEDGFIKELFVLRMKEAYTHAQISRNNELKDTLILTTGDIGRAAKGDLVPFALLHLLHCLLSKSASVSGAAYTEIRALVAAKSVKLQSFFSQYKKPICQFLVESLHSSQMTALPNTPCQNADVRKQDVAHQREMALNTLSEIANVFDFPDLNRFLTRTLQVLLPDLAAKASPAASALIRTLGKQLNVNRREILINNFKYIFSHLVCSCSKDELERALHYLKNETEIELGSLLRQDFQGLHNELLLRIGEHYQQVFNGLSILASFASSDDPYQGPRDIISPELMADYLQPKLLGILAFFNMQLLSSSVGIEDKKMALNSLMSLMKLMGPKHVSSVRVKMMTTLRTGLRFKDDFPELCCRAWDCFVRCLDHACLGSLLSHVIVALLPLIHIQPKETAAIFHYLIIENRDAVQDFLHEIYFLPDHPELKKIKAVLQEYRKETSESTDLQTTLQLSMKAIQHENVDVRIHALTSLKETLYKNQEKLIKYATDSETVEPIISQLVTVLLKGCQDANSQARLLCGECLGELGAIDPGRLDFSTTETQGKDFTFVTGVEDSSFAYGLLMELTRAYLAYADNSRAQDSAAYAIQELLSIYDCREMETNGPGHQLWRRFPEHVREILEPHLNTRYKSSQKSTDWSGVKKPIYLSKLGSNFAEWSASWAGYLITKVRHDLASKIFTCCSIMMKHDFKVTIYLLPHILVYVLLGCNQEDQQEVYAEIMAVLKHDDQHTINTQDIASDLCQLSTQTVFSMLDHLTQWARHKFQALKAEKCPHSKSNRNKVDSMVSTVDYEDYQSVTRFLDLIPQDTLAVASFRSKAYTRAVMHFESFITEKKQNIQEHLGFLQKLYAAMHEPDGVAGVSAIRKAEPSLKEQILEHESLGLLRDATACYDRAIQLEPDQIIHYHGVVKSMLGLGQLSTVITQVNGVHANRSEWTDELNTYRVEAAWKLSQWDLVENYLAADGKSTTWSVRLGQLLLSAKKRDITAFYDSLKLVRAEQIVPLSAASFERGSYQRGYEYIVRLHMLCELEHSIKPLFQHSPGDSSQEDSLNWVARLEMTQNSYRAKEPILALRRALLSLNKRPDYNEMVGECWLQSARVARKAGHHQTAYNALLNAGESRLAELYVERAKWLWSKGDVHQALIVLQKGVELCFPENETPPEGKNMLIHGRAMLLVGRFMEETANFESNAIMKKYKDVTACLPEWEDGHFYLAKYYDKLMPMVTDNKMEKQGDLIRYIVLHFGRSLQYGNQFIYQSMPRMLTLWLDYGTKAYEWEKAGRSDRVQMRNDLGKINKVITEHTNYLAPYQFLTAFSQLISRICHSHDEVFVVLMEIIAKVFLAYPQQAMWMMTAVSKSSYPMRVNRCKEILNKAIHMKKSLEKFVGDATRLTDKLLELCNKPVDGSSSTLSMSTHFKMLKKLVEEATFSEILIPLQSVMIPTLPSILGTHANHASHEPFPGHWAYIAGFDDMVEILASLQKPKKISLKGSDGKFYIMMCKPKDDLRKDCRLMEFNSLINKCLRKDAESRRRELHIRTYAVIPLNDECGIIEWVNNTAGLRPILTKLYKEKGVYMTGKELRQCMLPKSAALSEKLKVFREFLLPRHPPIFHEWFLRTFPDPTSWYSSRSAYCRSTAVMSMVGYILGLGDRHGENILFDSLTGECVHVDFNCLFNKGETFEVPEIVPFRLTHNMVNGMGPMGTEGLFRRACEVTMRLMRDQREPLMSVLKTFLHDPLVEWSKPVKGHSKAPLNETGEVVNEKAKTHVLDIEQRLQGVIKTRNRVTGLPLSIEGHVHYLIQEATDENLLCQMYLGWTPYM

ATm + SEM (° C.) [1] [°C]	Compound	inhibition of ATR (phosphorylation of p53 S15) [2]	p53-mediated p21 expression [3]
3.4 ± 0.1	C[C@@H]1COCCN1c1cc(C2([S@](C)(=N)=O)CC2)nc(-c2cc[nH]c3nccc2-3)n1 [AZD6738]		
	C=CCCn1cc(-c2cc(C(=O)N3CCOCC3)cc3c2ncn3C)c2cc[nH]c2c1=O [GNE-371, reference compound]	absence of inhibition	
	C=CCCn1cc(-c2cc(C3([S@](C)(=N)=O)CC3)nc(-c3ccnc4[nH]ccc34)n2)c2cc[nH]c2c1=O [ZS1-681]	does not inhibit ATR; also recorded: absence of inhibition	induces p53-mediated p21 expression
